Data taken from paper PMC6009888, “Design, synthesis, and pharmacological evaluation of 2-amino-5-nitrothiazole derived semicarbazones as dual inhibitors of monoamine oxidase and cholinesterase: effect of the size of aryl binding site” (Journal of Enzyme Inhibition and Medicinal Chemistry, 2017).
Several values for one entry are separate records, joined by “and”; a condition that tells them apart may be missing. Equal values may be shown once.

Columns and labels:
rat brain AChE = molecular target: T1, rat brain AChE (Rattus norvegicus, UniProt P37136); assay: biochemical; assay type: biochemical; settings: for IC50: rat brain AChE, ACTI substrate, mean ± SEM, triplicate, read-out: AChE In vitro IC50 (µM) ± SEM; for AChE: fold less active relative to compound 19: diaryl analogues
T1 construct: the resulting clear supernatants obtained were used as enzyme sources; from tissue; host or cells: rat brain cortex homogenate, 10,000 g supernatant
Method: Rat brain was used as a source of AChE enzyme. Rats were separately decapitated, the brain cortices quickly removed, weighed and homogenised in cold 10 mM Tris-HCl buffer, pH 7.2, containing 160 mM sucrose. The homogenates were centrifuged at 10,000 g for 10 min at 4 °C, and the resulting clear supernatants obtained were used as enzyme sources that were divided into aliquots and stored at −20 °C.
(§1) About 30 µl of enzyme sample (AChE) was added to 60 µl of 20 mM sodium phosphate buffer (pH 7.4) and were incubated in the presence of 30 µl of 10 mM DTNB solution with different concentrations of the test compounds. The enzyme reaction was initiated by the addition of 30 µl of 0.8 mM ACTI. The mixtures were incubated for 15 min at 25 °C. […] Control experiments were carried out without inhibitor, and blanks were run without AChE enzyme. All the assays were performed in triplicate. IC50 values were determined using the GraphPad Prism 5.0 (San Diego, CA) and the results were expressed as mean ± SEM.
(§2) 0, 15, 30 and 60 min at 25 °C in sodium phosphate buffer (20 mM, pH 7.4) and DTNB solution (10 mM). […] The reaction was further incubated at 25 °C for a further 15 min and the residual enzyme activities were measured and the bar graphs were constructed. All measurements were carried out in triplicate and are expressed as mean ± SEM.

physchem = settings: octanol/water
MAO-A = molecular target: T2, MAO-A (Rattus norvegicus, UniProt P21396); assay: In vitro MAO-A inhibition assay (rat brain mitochondria, serotonin substrate); assay type: biochemical; settings: rat brain mitochondria, serotonin substrate, mean ± SEM, triplicate; read-out: MAO-A In vitro IC50 (µM) ± SEM
T2 construct: employing crude rat brain mitochondrial suspension; from tissue; host or cells: brain mitochondria of adult Wistar rats
T2 sequence (P21396 1-526): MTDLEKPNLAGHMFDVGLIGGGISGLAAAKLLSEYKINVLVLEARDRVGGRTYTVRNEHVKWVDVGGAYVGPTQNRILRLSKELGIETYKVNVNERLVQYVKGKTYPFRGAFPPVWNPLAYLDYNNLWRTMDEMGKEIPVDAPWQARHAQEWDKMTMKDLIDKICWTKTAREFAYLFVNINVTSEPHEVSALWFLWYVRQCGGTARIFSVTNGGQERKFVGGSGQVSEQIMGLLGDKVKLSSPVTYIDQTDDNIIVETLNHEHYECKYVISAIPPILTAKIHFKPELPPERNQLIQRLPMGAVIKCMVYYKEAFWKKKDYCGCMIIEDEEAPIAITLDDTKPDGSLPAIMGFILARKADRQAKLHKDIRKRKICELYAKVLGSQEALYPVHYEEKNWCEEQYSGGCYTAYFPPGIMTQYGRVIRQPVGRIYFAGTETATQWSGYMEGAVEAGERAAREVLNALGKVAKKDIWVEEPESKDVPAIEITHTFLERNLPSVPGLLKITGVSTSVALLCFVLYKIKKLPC
Method: (§3) Rat brain mitochondria were used as a source of MAO isoforms. All operations were carried out at 4 °C[50]. Male and female adult Wistar rats weighing 200–220 g were decapitated. All brains were rapidly removed and homogenised with a Potter–Elvehjem homogeniser in cold 0.32 M sucrose and 50 mM Tris-HCl, pH 8.2 (10:1, v/w). The homogenate was centrifuged twice at 1000 g for 5 min at 4 °C. The resulting supernatant was centrifuged at 20,000 g for 20 min. The mitochondrial pellet obtained was suspended in 100 mM sodium phosphate buffer, pH 7.4 (4:1, v/w), fractionated in plastic vials to 500 µl samples and stored at −80 °C. Before use, mitochondria were diluted with 100 mM sodium phosphate buffer to give a working solution of 0.80 mg of protein per millilitre.
(§4) The experiments were carried out under all the suitable laboratory conditions. […] An aliquot was made to contain mixture of 55 µl mitochondrial suspension (0.80 mg of protein/ml), 90 µl 50 mM Tris-HCl buffer, pH 8.2 and 30 µl solubilising solution (control or inhibitor solution at five different concentrations). The reaction was initiated by adding 25 µl of serotonin (4 mM, substrate for MAO-A) and 25 µl benzylamine (0.1 M, substrate for MAO-B) for the determination of MAO-A and MAO-B activity, respectively. The mixture was incubated at 37 °C for 30 min and the reaction was stopped by the addition of 50 µl of 1 N HCl. The absorbance associated with the production of 5-hydroxyindolacetic acid was measured at 280 nm for the estimation of MAO-A while for MAO-B estimation, the absorbance was measured at 250 nm due to the formation of benzaldehyde. All the assays were performed in triplicate. Control experiments were carried out without inhibitor and blanks were run without mitochondrial suspension.
(§5) Data are expressed as mean ± standard error mean (SEM) of experiments performed in triplicate.
as §2, with “37” for “25”, “Tris-HCl” for “sodium phosphate”, “(50” for “(20”, “8.2).” for “7.4) and DTNB solution (10 mM).”, “reactions were” for “reaction was”

MAO-B = molecular target: T3, MAO-B (Rattus norvegicus, UniProt P19643); assay: biochemical; settings: for SI (selectivity index for MAO-B): ratio of experimental IC50(MAO-A)/IC50(MAO-B)
T3 construct: employing crude rat brain mitochondrial suspension; from tissue; host or cells: brain mitochondria of adult Wistar rats
T3 sequence (P19643 1-520): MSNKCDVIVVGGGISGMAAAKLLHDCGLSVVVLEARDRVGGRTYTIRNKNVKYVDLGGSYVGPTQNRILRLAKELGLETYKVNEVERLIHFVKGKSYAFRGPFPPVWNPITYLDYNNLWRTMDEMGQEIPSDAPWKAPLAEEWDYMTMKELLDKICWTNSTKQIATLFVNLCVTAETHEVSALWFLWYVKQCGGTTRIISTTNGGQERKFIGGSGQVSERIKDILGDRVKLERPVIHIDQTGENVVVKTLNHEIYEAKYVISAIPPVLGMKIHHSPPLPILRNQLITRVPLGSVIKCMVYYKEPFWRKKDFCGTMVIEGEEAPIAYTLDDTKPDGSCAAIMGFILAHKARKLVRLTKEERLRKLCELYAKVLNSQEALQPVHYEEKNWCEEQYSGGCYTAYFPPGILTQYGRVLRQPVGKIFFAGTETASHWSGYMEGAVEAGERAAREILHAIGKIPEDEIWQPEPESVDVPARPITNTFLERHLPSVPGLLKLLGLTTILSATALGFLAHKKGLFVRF
Method: as §3, §4, §5
as §2, with “37” for “25”, “Tris-HCl” for “sodium phosphate”, “(50” for “(20”, “8.2).” for “7.4) and DTNB solution (10 mM).”, “reactions were” for “reaction was”

mice = assay: Neurotoxicity screening (rotarod test); assay type: in vivo; settings: 30 mg/kg i.p.
Method: The neurotoxicity screening was undertaken according to the method followed by the National Institute of Health, using their reported procedures[55]^,[56]. Male albino mice (CF-1 strain or Swiss, 18–25 g) were used as experimental animals. The animals were housed in metabolic cages, and allowed free access to food and water. The test compounds were suspended in 0.5% methylcellulose/water mixture or in polyethylene glycol (PEG 200).
Minimal motor impairment was measured in mice by the rotarod test. The mice were trained to stay on an accelerating rotarod that rotates at six revolutions per minute. The rod diameter was 3.2 cm. Trained animals were given i.p. injection of the selected inhibitors at a dose of 30 mg/kg. Neurotoxicity was indicated by the inability of the animal to maintain equilibrium on the rod for at least 1 min in each of the three trials.

[1] = In vitro DPPH radical scavenging assay; settings: test sample 100 µg/ml, 100 µM methanolic DPPH, 30 min, 517 nm
Method: Antioxidant activity of the synthesised compounds (10 mg/ml) was evaluated using the radical scavenging capability against the stable free radical, 2,2′-diphenyl-1-picryl hydrazyl (DPPH·). The DPPH· scavenging capability was determined using UV based spectrophotometric assay. About 200 µl of the test sample solution (100 µg/ml) was added to 4 ml of 100 µM methanolic DPPH. […] Ascorbic acid (100 µg/ml) was used as reference. The percentage inhibition of DPPH activity was estimated using the formula: Percent (%) inhibition of DPPH activity = Acontrol-Asample/Acontrol×100 where Acontrol is the absorbance of DPPH· in methanol without an antioxidant and Asample is the absorbance of DPPH· in the presence of an antioxidant.

equine serum BuChE = molecular target: T4, equine serum BuChE (Equus caballus, UniProt P81908); assay: In vitro BuChE inhibition assay (Ellman's method, equine serum BuChE); assay type: biochemical; settings: for IC50: equine serum BuChE, BuTI substrate, mean ± SEM, read-out: BuChE In vitro IC50 (µM) ± SEM
T4 construct: equine serum BuChE was used as enzyme; purchased Sigma-Aldrich; host or cells: equine serum
Method: as §1
The BuChE activity was assayed as per the procedure followed for AChE activity except that equine serum BuChE was used as enzyme and butyrylthiocholine iodide (BuTI) was used as substrate.
as §2

T1 sequence (P37136 32-614): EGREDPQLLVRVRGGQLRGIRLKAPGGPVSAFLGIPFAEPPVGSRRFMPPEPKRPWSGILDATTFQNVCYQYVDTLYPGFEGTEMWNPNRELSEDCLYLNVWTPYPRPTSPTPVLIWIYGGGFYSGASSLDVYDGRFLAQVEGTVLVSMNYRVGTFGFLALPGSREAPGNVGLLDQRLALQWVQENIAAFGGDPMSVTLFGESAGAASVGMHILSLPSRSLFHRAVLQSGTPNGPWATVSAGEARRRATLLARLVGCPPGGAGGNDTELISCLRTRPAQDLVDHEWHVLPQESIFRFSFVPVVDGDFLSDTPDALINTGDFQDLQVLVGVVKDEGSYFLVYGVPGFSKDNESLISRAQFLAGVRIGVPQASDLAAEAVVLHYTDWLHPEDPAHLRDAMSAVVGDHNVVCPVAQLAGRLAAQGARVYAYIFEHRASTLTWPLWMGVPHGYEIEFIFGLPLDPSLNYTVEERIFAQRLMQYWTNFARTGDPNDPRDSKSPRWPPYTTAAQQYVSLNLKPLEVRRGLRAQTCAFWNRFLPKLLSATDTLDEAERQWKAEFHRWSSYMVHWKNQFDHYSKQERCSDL
T4 sequence (P81908 whole entry): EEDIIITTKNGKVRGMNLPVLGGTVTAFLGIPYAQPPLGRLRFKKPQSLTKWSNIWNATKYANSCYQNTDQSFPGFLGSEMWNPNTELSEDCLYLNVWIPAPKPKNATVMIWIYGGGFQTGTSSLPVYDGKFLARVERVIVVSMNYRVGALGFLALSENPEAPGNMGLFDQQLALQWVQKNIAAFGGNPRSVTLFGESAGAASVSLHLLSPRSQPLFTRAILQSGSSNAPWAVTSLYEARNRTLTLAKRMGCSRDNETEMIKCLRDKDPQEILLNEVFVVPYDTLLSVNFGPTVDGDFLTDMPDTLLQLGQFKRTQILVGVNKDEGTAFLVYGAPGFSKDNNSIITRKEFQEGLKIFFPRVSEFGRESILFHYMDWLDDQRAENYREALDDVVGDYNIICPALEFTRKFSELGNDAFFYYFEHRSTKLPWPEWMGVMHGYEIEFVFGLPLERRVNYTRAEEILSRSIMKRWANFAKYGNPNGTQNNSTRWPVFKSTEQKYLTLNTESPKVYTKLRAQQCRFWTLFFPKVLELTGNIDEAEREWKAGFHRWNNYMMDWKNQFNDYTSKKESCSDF

| Compound | AChE: fold less active than compound 14 (rat brain AChE; isomeric dichloro derivatives) | IC50 (rat brain AChE) | logP (physchem) | IC50 (MAO-A) | IC50 (MAO-B) | MAO-B: fold less active than compound 13 (MAO-B; isomeric dichloro derivatives) | SI (selectivity index for MAO-B) (MAO-B) | Neurotoxicity (animals that exhibit toxicity / animals tested) (mice; 0.5 h) | Neurotoxicity (animals that exhibit toxicity / animals tested) (mice; 1 h) | Neurotoxicity (animals that exhibit toxicity / animals tested) (mice; 2 h) | Neurotoxicity (animals that exhibit toxicity / animals tested) (mice; 4 h) | % inhibition of DPPH activity [1] | AChE: fold less active relative to compound 19 (rat brain AChE) | BuChE: fold less active relative to compound 17 (equine serum BuChE; diaryl analogues) | IC50 (equine serum BuChE) | Mode of BuChE inhibition (equine serum BuChE; Lineweaver–Burk plots, BuTI) | Reversibility of BuChE inhibition (equine serum BuChE; time-dependent inhibition, pre-incubation 0, 15, 30, 60 min) | AChE: fold more active relative to compound 7 (rat brain AChE; ratio of IC50 values) | MAO-B: fold reduction in the activity (hydroxyl vs dichloro diaryl analogue 19) (MAO-B; diaryl analogues) | MAO-B: fold less active relative to compound 7 (MAO-B; ratio of IC50 values) |
| --- | --- | --- | --- | --- | --- | --- | --- | --- | --- | --- | --- | --- | --- | --- | --- | --- | --- | --- | --- | --- |
| O=C(NN=Cc1cccc(Cl)c1Cl)Nc1ncc([N+](=O)[O-])s1 [Compound 12, 1-(2,3-Dichlorobenzylidene)-4-(5-nitrothiazol-2-yl)semicarbazide] | ~9.4 fold | 101 ± 1.58 µM | 2.6 | 3369 ± 6.43 µM | 8.51 ± 0.132 µM | ~2.4 fold | 395.79 | 0/4 | 0/4 | 0/4 | 0/4 | 42.56% |  |  |  |  |  |  |  |  |
| O=C(NN=Cc1ccc(Cl)cc1Cl)Nc1ncc([N+](=O)[O-])s1 [Compound 13, 1-(2,4-Dichlorobenzylidene)-4-(5-nitrothiazol-2-yl)semicarbazide] |  | 141 ± 3.11 µM | 2.5 | 10470 ± 13.9 µM | 3.49 ± 0.098 µM |  | 3001.15 | 0/4 | 0/4 | 0/4 | 0/4 | 39.39% |  |  |  |  |  |  |  |  |
| O=C(NN=C(c1ccccc1)c1ccccc1)Nc1ncc([N+](=O)[O-])s1 [Compound 16, 1-(Diphenylmethylene)-4-(5-nitrothiazol-2-yl)semicarbazide] |  | 4.86 ± 0.81 µM | 3.4 | < 100 µM and 89.3 µM | 28.3 ± 0.45 µM |  | 3.15 | 0/4 | 0/4 | 0/4 | 0/4 |  | ~3.35 fold | ~73 fold | 1.76 ± 0.035 µM |  |  |  |  |  |
| O=C(NN=C(c1ccccc1)c1ccc(Cl)cc1)Nc1ncc([N+](=O)[O-])s1 [Compound 17, 1-((4-Chlorophenyl)(phenyl)methylene)-4-(5-nitrothiazol-2-yl)semicarbazide] |  | 11.5 ± 0.35 µM | 3.6 | 4872 ± 5.81 µM | 28.52 ± 0.079 µM |  | 170.83 |  |  |  |  |  |  |  | 0.024 ± 0.002 µM | mixed-type | reversible |  |  |  |
| O=C(NN=C(c1ccccc1)c1ccc(O)cc1)Nc1ncc([N+](=O)[O-])s1 [Compound 18, 1-((4-Hydroxyphenyl)(phenyl)methylene)-4-(5-nitrothiazol-2-yl)semicarbazide] |  | 2.66 ± 0.084 µM | 2.9 | > 100 µM and 34300 µM | 158 ± 3.71 µM |  | 217.26 | 0/4 | 0/4 | 0/4 | 0/4 | 10.77% | ~1.83 fold |  |  |  |  | ~4.97 fold | ~107 fold | ~10.7 fold |
| O=C(NN=C1C(=O)Nc2ccccc21)Nc1ncc([N+](=O)[O-])s1 [Compound 20, 4-(5-Nitrothiazol-2-yl)-1-(2-oxoindolin-3-ylidene)semicarbazide] |  | 54.8 ± 0.92 µM | 1.1 | 2250 ± 12.8 µM | 4.51 ± 0.086 µM |  | 499.22 | 0/4 | 0/4 | 0/4 | 0/4 | 47.16% |  |  |  |  |  |  |  |  |
